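Values below derive from 48-hour exposures of cells grown in 96-well plates, with endpoints linearly interpolated between the two concentrations bracketing the appropriate inhibition level. At the GI50, growth is halved.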 Activity calls are given as the source filed them. Rule as the data show it: active = GI50 up to about 1.1 µM and inactive = higher.
Tests used:
Assay in all cases: inhibition of tumour cell growth, NCI panel, 48 h
UACC-257 = test system: UACC-257
SF-268 = test system: SF-268
SF-539 = test system: SF-539
SF-295 = test system: SF-295
SK-MEL-2 = test system: SK-MEL-2
LOX IMVI = test system: LOX IMVI
OVCAR-8 = test system: OVCAR-8
OVCAR-5 = test system: OVCAR-5
M14 = test system: M14
SNB-75 = test system: SNB-75
SK-MEL-28 = test system: SK-MEL-28
A498 = test system: A498
SW-620 = test system: SW-620
HOP-18 = test system: HOP-18
K562 = test system: K562
786-0 = test system: 786-0
NCI-H23 = test system: NCI-H23

Measured: GI50

CN1c2ccccc2N(C(=O)c2ccccc2)C(CC(=O)O)c2cccn21 (configuration not stated)
inactive: UACC-257 > 100 µM | SF-268 > 100 µM | SF-539 > 100 µM | SF-295 > 100 µM | SK-MEL-2 > 100 µM | LOX IMVI > 100 µM | OVCAR-8 > 100 µM | OVCAR-5 > 100 µM | M14 > 100 µM | SNB-75 > 100 µM | SK-MEL-28 > 100 µM | A498 > 100 µM | SW-620 > 100 µM | HOP-18 > 100 µM | K562 > 100 µM | 786-0 > 100 µM | NCI-H23 > 100 µM

COC(CN1C=C(Sc2ccccc2)CC1)OC
inactive: UACC-257 34.8 µM | SF-268 29.7 µM | SF-539 26.4 µM | SF-295 19.5 µM | SK-MEL-2 19.4 µM | LOX IMVI 24.8 µM | OVCAR-8 29.6 µM | OVCAR-5 49.2 µM | M14 33.7 µM | SNB-75 19 µM | SK-MEL-28 31 µM | A498 48.2 µM | SW-620 21.9 µM | HOP-18 59.3 µM | K562 20.7 µM | 786-0 36.4 µM | NCI-H23 23.7 µM

CCOC(OC1=C(C#N)CCC1)C(C)[Se]c1ccccc1 (configuration not stated)
inactive: UACC-257 62.8 µM | SF-268 19.8 µM | SF-539 21.6 µM | SF-295 22.2 µM | SK-MEL-2 16.8 µM | LOX IMVI 10 µM | OVCAR-8 18.7 µM | OVCAR-5 39.8 µM | M14 16.1 µM | SNB-75 22.3 µM | SK-MEL-28 40.6 µM | A498 > 100 µM | HOP-18 25.4 µM | K562 55.6 µM | 786-0 14.4 µM | NCI-H23 12.9 µM

C/C=C(/CCCCNCCCC)[Si](C)(C)C
inactive: UACC-257 15.2 µM | SF-268 12.3 µM | SF-539 14.9 µM | SF-295 15.8 µM | SK-MEL-2 18.7 µM | LOX IMVI 14.2 µM | OVCAR-8 15.7 µM | OVCAR-5 14.4 µM | M14 14.4 µM | SNB-75 13.5 µM | SK-MEL-28 15.8 µM | A498 15.5 µM | SW-620 16.6 µM | HOP-18 > 10 µM | K562 17.6 µM | 786-0 12.5 µM | NCI-H23 16.1 µM
